Key:
5-HT1A = target: T1, 5-HT1A (Homo sapiens, UniProt P08908); assay: 5HT1A Radioligand Receptor Binding Assay ([3H]-8-OH-DPAT, CHO cell membranes); set-up: expressed in transfected cells; host or cells: CHO cells; conditions: CHO membranes, human 5-HT1A
T1 sequence (P08908 1-422): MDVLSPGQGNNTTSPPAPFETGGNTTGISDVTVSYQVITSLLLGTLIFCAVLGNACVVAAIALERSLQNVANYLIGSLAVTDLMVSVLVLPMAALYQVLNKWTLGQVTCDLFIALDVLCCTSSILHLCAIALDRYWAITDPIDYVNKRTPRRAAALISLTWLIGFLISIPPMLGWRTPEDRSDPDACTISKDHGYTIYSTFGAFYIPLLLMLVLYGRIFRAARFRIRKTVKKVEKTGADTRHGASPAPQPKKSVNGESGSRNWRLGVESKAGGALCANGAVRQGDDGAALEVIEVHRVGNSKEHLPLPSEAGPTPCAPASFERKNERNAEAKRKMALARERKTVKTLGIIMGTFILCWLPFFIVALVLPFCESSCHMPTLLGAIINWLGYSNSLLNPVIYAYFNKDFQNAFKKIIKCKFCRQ
In short: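 CHO-cell membranes expressing human 5-HT1A incubated with [3H]-8-OH-DPAT (0.6-0.7 nM) for 60 minutes at 27° C, filtered and scintillation counted; non-specific binding defined with 10^−5 M 5-HT. Compounds tested singly at 10^−7 M as % of control specific binding; IC50 from one-site nonlinear regression.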

D4 human receptors = target: T2, D4 human receptors (Homo sapiens, UniProt P21917); assay: D4 Radioligand Receptor Binding Assay ([3H] YM-09151-2, CHO cell membranes); conditions: compound 10^−7 M, singlicate, [3H] YM-09151-2 0.15-0.25 nM
T2 construct: expressed in transfected cells; host or cells: CHO cells
T2 sequence (P21917 1-419): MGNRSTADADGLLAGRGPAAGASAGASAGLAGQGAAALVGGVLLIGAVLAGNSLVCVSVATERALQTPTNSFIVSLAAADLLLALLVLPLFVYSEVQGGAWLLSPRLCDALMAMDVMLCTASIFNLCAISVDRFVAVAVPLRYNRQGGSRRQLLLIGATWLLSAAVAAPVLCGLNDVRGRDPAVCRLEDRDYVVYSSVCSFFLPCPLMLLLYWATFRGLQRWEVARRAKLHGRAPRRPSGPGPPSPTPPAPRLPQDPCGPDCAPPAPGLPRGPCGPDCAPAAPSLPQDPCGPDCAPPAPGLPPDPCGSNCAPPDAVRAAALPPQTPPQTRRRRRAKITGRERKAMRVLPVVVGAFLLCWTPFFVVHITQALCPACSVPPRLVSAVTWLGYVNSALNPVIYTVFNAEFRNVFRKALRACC
In short: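 Membranes from CHO cells expressing human D4 receptor incubated with [3H] YM-09151-2 (0.15-0.25 nM) and compound at one concentration (10^−7 M, singlicate) for 120 min at 27° C, then filtered.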

CCNC(=O)OCCn1c(=O)n(CCN2CCN(c3cccc(C)c3C)CC2)c2ccccc21 [Compound 215]
IC50 (5-HT1A; [3H]-8-OH-DPAT, read-out: 5-HT1A Receptor Binding IC50): 0.85 nM
inhibition at 0.1 µM (5-HT1A; compound 10^−7 M, singlicate, [3H]-8-OH-DPAT 0.6-0.7 nM): 98%
inhibition at 0.1 µM (D4 human receptors): 48%

From patent publication US6521623B1, “N,N'-disubstituted benzimidazolone derivatives with affinity at the serotonin and dopamine receptors” (Boehringer Ingelheim Pharma KG, priority 2000, dated 2003)
